Results as given in patent publication US11708562B2, “Differentiation of human embryonic stem cells” (Janssen Biotech, Inc., priority 2006, dated 2023).

Tested on: H9P33, H9P44 and H9P48 cells
Experiment: Microarray analysis of definitive endoderm on MEFs vs MATRIGEL +/- Wnt-3A (Table VI)
Experimental: Controls for each group included cells plated on […]-coated dishes and cultured in MEF-conditioned medium or cells plated on MEFs and cultured in ES medium. All groups contained three biological replicates and each biological replicate was repeated on two separate gene chips.
Sample preparation, hybridization, and image analysis were performed according to the Affymetrix Human Genome U133 Plus 2.0 Array. Following normalization and a log transformation, data analysis was performed using OmniViz® software (MA) and […] (VizXLabs, WA). Significant differences in gene expression between the samples were evaluated using analysis of variance and an F-test with adjusted P-value (Benjamini and Hochberg correction) of ≤0.05. Only genes with a present call in at least one group were included in the analysis.

[1] = DE treatment in low serum, on MEFS
[2] = log format, DE treatment in low serum + AA on MATRIGEL

“Activin A: a member of the TGFβ superfamily; growth factor (R&D Systems) used to differentiate human embryonic stem cells” was tested, and the “mean normalized intensity (log format), Homo sapiens glycophorin Erik STA (GPErik) gene” value [1] was −0.4544, the “mean normalized intensity (log format), Homo sapiens growth differentiation factor 3 (GDF3), mRNA” value [1] was 2.875 and the “mean normalized intensity (log format), Homo sapiens haptoglobin (HP), mRNA” value [1] was 0.477. The “mean normalized intensity (log format), Homo sapiens haptoglobin-related protein (HPR), mRNA” value [1] was −1.196, the “mean normalized intensity (log format), Homo sapiens homeobox protein goosecoid mRNA, complete cds” value [1] was 1.894 and the “mean normalized intensity (log format), Homo sapiens hypothetical protein FLJ10718 (FLJ10718), mRNA” value [1] was 5.552. For the same substance, the “mean normalized intensity (log format), Homo sapiens hypothetical protein FLJ10970 (FLJ10970), mRNA” value [1] was 3.02, the “mean normalized intensity (log format), Homo sapiens hypothetical protein FLJ11316 (FLJ11316), mRNA” value [1] was 0.7553 and the “mean normalized intensity (log format), Homo sapiens hypothetical protein FLJ22252 similar to SRY-box containing gene 17 (FLJ22252), mRNA” value [1] was 4.5979. The “mean normalized intensity (log format), Homo sapiens hypothetical protein FLJ23403 (FLJ23403), mRNA” value [1] was −1.004, the “mean normalized intensity (log format), Homo sapiens lumican (LUM), mRNA” value [1] was 0.9488 and the “mean normalized intensity (log format), Homo sapiens mRNA for GATA-6, complete cds” value [1] was 5.343. The “mean normalized intensity (log format), Homo sapiens mRNA for KIAA1409 protein, partial cds” value [1] was −1.032, the “mean normalized intensity (log format), Homo sapiens mRNA; cDNA DKFZp434D0818 (from clone DKFZp434D0818)” value [1] was −0.3056 and the “mean normalized intensity (log format), Homo sapiens mRNA; cDNA DKFZp586J0624 (from clone DKFZp586J0624)” value [1] was 3.699. The “mean normalized intensity (log format), Homo sapiens matrix metalloproteinase 14 (membrane-inserted) (MMP14), mRNA” value [1] was −0.09689, the “mean normalized intensity (log format), Homo sapiens phorbolin-like protein MDS019 (MDS019), mRNA” value [1] was 2.408 and the “mean normalized intensity (log format), Homo sapiens presenilin stabilization factor b (PSF) mRNA” value [1] was 0.5675. For the same substance, the “mean normalized intensity (log format), Homo sapiens reserved (KCNK12), mRNA” value [1] was 3.78, the “mean normalized intensity (log format), Homo sapiens retinoid X receptor, gamma (RXRG), mRNA” value [1] was −0.3204 and the “mean normalized intensity (log format), Homo sapiens sema domain, immunoglobulin domain (Ig), short basic domain, secreted, (semaphorin) 3E (SEMA3E), mRNA” value [1] was 1.276. The “mean normalized intensity (log format), Homo sapiens sema domain, seven thrombospondin repeats, (semaphorin) 5A (SEMA5A), mRNA” value [1] was 1.487, the “mean normalized intensity (log format), Homo sapiens solute carrier family 16 (monocarboxylic acid transporters), member 3 (SLC16A3), mRNA” value [1] was 1.724 and the “mean normalized intensity (log format), Homo sapiens solute carrier family 21 (prostaglandin transporter), member 2 (SLC21A2), mRNA” value [1] was 2.433. For the same substance, the “mean normalized intensity (log format), Homo sapiens type VI collagen alpha 2 chain precursor (COL6A2) mRNA” value [1] was 2.845, the “mean normalized intensity (log format), Homo sapiens, alpha-1 (VI) collagen” value [1] was −2.269 and the “mean normalized intensity (log format), Homo sapiens, clone MGC: 4655, mRNA” value [1] was 2.476. The “mean normalized intensity (log format), Human (clone 8B1) Br-cadherin mRNA” value [1] was −1.026, the “mean normalized intensity (log format), Human (clone HSY3RR) neuropeptide Y receptor (NPYR) mRNA” value [1] was 5.48 and the “mean normalized intensity (log format), Human DNA sequence from clone RP1-181C24 on chromosome 6p11.1-12.2 (3 end of the BMP5 gene)” value [1] was −0.3731. The “mean normalized intensity (log format), Human Fritz mRNA, complete cds” value [1] was 3.915, the “mean normalized intensity (log format), Human dipeptidyl peptidase IV (CD26) mRNA” value [1] was −1.256 and the “mean normalized intensity (log format), Human glycophorin HeP2 mRNA, partial cds” value [1] was 0.2335. The “mean normalized intensity (log format), Human link protein mRNA, complete cds” value [1] was −1.263, the “mean normalized intensity (log format), Human mRNA for alpha-1 type II collagen” value [1] was −0.3802 and the “mean normalized intensity (log format), Human mRNA for apolipoprotein AI (apo AI)” value [1] was 2.497. The “mean normalized intensity (log format), Human prostatic secretory protein 57 mRNA” value [1] was −0.4077, the “mean normalized intensity (log format), KIAA0878 protein” value [1] was 4.789 and the “mean normalized intensity (log format), KIAA1462 protein” value [1] was 0.4371. For the same substance, the “mean normalized intensity (log format), MCP-1 = monocyte chemotactic protein” value [1] was 2.955, the “mean normalized intensity (log format), Rho GDP dissociation inhibitor (GDI) alpha” value [1] was −2.582 and the “mean normalized intensity (log format), WAS protein family, member 2” value [1] was −1.06. The “mean normalized intensity (log format), collagen, type IX, alpha 2” value [1] was 2.935, the “mean normalized intensity (log format), collagen, type VI, alpha 1” value [1] was 0.6042 and the “mean normalized intensity (log format), glycophorin B (includes Ss blood group)” value [1] was −0.1297. For the same substance, the “mean normalized intensity (log format), hepatocyte nuclear factor 4, alpha” value [1] was 0.4452, the “mean normalized intensity (log format), homeo box HB9” value [1] was 1.631 and the “mean normalized intensity (log format), hypothetical protein FLJ21032” value [1] was 2.618. For the same substance, the “mean normalized intensity (log format), hypothetical protein FLJ23091” value [1] was 3.78, the “mean normalized intensity (log format), hypothetical protein FLJ23403” value [1] was −2.313 and the “mean normalized intensity (log format), matrix metalloproteinase 14 (membrane-inserted)” value [1] was −0.5185. For the same substance, the “mean normalized intensity (log format), microfibrillar-associated protein 4” value [1] was −0.6009, the “mean normalized intensity (log format), myristoylated alanine-rich protein kinase C substrate (MARCKS, 80K-L)” value [1] was 0.3357 and the “mean normalized intensity (log format), neuropilin 1” value [1] was −1.9667. The “mean normalized intensity (log format), noggin” value [1] was 1.33, the “mean normalized intensity (log format), phorbolin-like protein MDS019” value [1] was 0.5035 and the “mean normalized intensity (log format), solute carrier family 16 (monocarboxylic acid transporters), member 3” value [1] was 0.279. For the same substance, the “mean normalized intensity (log format), splicing factor, arginineserine-rich 5” value [1] was 4.272, the “mean normalized intensity (log format), stanniocalcin 1” value [1] was 6.143 and the “mean normalized intensity: DKFZP566K1924 protein” value [2] was 2.882. The “mean normalized intensity: ESTs, Moderately similar to ALU2_HUMAN ALU SUBFAMILY SB SEQUENCE CONTAMINATION WARNING ENTRY (H. sapiens)” value [2] was 4.241, the “mean normalized intensity: H. sapiens mRNA for B-HLH DNA binding protein.” value [2] was 5.43 and the “mean normalized intensity: Homo sapiens BCL2-interacting killer (apoptosis-inducing) (BIK), mRNA.” value [2] was 4.3. The “mean normalized intensity: Homo sapiens Charot-Leyden crystal protein (CLC), mRNA.” value [2] was 3.301, the “mean normalized intensity: Homo sapiens HES-related repressor protein 1 HERP1 mRNA, complete cds.” value [2] was 2.806 and the “mean normalized intensity: Homo sapiens HSPC156 protein (HSPC156), mRNA.” value [2] was 0.7862. For the same substance, the “mean normalized intensity: Homo sapiens KIAA0469 gene product (KIAA0469), mRNA.” value [2] was 4.031, the “mean normalized intensity: Homo sapiens PNAS-123 mRNA, complete cds” value [2] was 1.597 and the “mean normalized intensity: Homo sapiens Wilms tumor 1 (WT1), transcript variant D, mRNA.” value [2] was 2.405. For the same substance, the “mean normalized intensity: Homo sapiens cDNA FLJ11398 fis, clone HEMBA1000637.” value [2] was 2.5268, the “mean normalized intensity: Homo sapiens cDNA: FLJ22547 fis, clone HSI00356” value [2] was 4.294 and the “mean normalized intensity: Homo sapiens cadherin 6, type 2, K-cadherin (fetal kidney) (CDH6), mRNA.” value [2] was 0.8248.
